Data from PubChem BioAssay (NCI).
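A five-concentration, 48-hour dose response in 96-well plates underlies each endpoint, interpolated linearly between surrounding concentrations. Here, GI50 denotes the concentration required for 50% inhibition of growth. TGI marks complete inhibition of growth.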

What was measured:
Test in all cases: inhibition of tumour cell growth, NCI panel, 48 h
UACC-62 melanoma = tested on: UACC-62 melanoma
U251 CNS = tested on: U251 CNS
NCI-H23 lung = tested on: NCI-H23 lung
TK-10 renal = tested on: TK-10 renal
RXF 393 renal = tested on: RXF 393 renal
OVCAR-3 ovarian = tested on: OVCAR-3 ovarian
SNB-19 CNS = tested on: SNB-19 CNS
MDA-MB-435 = tested on: MDA-MB-435
COLO 205 colon = tested on: COLO 205 colon
NCI-H460 lung = tested on: NCI-H460 lung
SK-MEL-28 melanoma = tested on: SK-MEL-28 melanoma
DU-145 prostate = tested on: DU-145 prostate
HCT-15 colon = tested on: HCT-15 colon
SF-295 CNS = tested on: SF-295 CNS
UO-31 renal = tested on: UO-31 renal
KM12 colon = tested on: KM12 colon
LOX IMVI melanoma = tested on: LOX IMVI melanoma
SK-MEL-5 melanoma = tested on: SK-MEL-5 melanoma
IGROV1 ovarian = tested on: IGROV1 ovarian
SW-620 colon = tested on: SW-620 colon
NCI-H226 lung = tested on: NCI-H226 lung
SF-268 CNS = tested on: SF-268 CNS
MALME-3M melanoma = tested on: MALME-3M melanoma
SN12C renal = tested on: SN12C renal
A549 NSCLC = tested on: A549 NSCLC
HL-60(TB) leukemia = tested on: HL-60(TB) leukemia
PC-3 prostate = tested on: PC-3 prostate
MDA-MB-231 breast = tested on: MDA-MB-231 breast
BT-549 breast = tested on: BT-549 breast
786-0 renal = tested on: 786-0 renal
SNB-75 CNS = tested on: SNB-75 CNS
SK-OV-3 ovarian = tested on: SK-OV-3 ovarian
SR leukemia = tested on: SR leukemia
HOP-92 NSCLC = tested on: HOP-92 NSCLC
NCI-H522 lung = tested on: NCI-H522 lung
MCF7 breast = tested on: MCF7 breast
SK-MEL-2 melanoma = tested on: SK-MEL-2 melanoma
M14 melanoma = tested on: M14 melanoma
OVCAR-8 ovarian = tested on: OVCAR-8 ovarian
NCI/ADR-RES ovarian = tested on: NCI/ADR-RES ovarian
T-47D breast = tested on: T-47D breast
ACHN renal = tested on: ACHN renal
MOLT-4 leukemia = tested on: MOLT-4 leukemia
HCC-2998 colon = tested on: HCC-2998 colon
A498 renal = tested on: A498 renal
HOP-62 NSCLC = tested on: HOP-62 NSCLC
CCRF-CEM leukemia = tested on: CCRF-CEM leukemia
SF-539 CNS = tested on: SF-539 CNS
OVCAR-5 ovarian = tested on: OVCAR-5 ovarian
K-562 leukemia = tested on: K-562 leukemia
OVCAR-4 ovarian = tested on: OVCAR-4 ovarian
RPMI-8226 leukemia = tested on: RPMI-8226 leukemia
HCT-116 colon = tested on: HCT-116 colon
HS 578T breast = tested on: HS 578T breast
HT29 colon = tested on: HT29 colon
CAKI-1 renal = tested on: CAKI-1 renal

SMILES: O=C(Nc1ccc2[nH]c3ccccc3c2c1)c1ccccc1Cl
- GI50 (UACC-62 melanoma): 6.53 µM
- TGI (UACC-62 melanoma): > 100 µM
- GI50 (U251 CNS): 4.62 µM
- TGI (U251 CNS): > 100 µM
- GI50 (NCI-H23 lung): 12.2 µM
- TGI (NCI-H23 lung): > 100 µM
- GI50 (TK-10 renal): 7.25 µM
- TGI (TK-10 renal): > 100 µM
- GI50 (RXF 393 renal): 2.49 µM
- TGI (RXF 393 renal): 8.99 µM
- GI50 (OVCAR-3 ovarian): 3.43 µM
- TGI (OVCAR-3 ovarian): 12.8 µM
- GI50 (SNB-19 CNS): 8.16 µM
- TGI (SNB-19 CNS): > 100 µM
- GI50 (MDA-MB-435): 0.969 µM
- TGI (MDA-MB-435): > 100 µM
- GI50 (COLO 205 colon): 3.5 µM
- TGI (COLO 205 colon): > 100 µM
- GI50 (NCI-H460 lung): 3.75 µM
- TGI (NCI-H460 lung): > 100 µM
- GI50 (SK-MEL-28 melanoma): 5.95 µM
- TGI (SK-MEL-28 melanoma): > 100 µM
- GI50 (DU-145 prostate): 6.09 µM
- TGI (DU-145 prostate): > 100 µM
- GI50 (HCT-15 colon): 2.95 µM
- TGI (HCT-15 colon): > 100 µM
- GI50 (SF-295 CNS): 3.63 µM
- TGI (SF-295 CNS): > 100 µM
- GI50 (UO-31 renal): 5.2 µM
- TGI (UO-31 renal): > 100 µM
- GI50 (KM12 colon): 2.32 µM
- TGI (KM12 colon): 11.6 µM
- GI50 (LOX IMVI melanoma): 3.41 µM
- TGI (LOX IMVI melanoma): 39 µM
- GI50 (SK-MEL-5 melanoma): 2.88 µM
- TGI (SK-MEL-5 melanoma): > 100 µM
- GI50 (IGROV1 ovarian): 8.85 µM
- TGI (IGROV1 ovarian): > 100 µM
- GI50 (SW-620 colon): 3.91 µM
- TGI (SW-620 colon): > 100 µM
- GI50 (NCI-H226 lung): 5.53 µM
- TGI (NCI-H226 lung): > 100 µM
- GI50 (SF-268 CNS): 6.77 µM
- TGI (SF-268 CNS): > 100 µM
- GI50 (MALME-3M melanoma): 4.64 µM
- TGI (MALME-3M melanoma): > 100 µM
- GI50 (SN12C renal): 5.16 µM
- TGI (SN12C renal): > 100 µM
- GI50 (A549 NSCLC): 4.32 µM
- TGI (A549 NSCLC): > 100 µM
- GI50 (HL-60(TB) leukemia): 3.07 µM
- TGI (HL-60(TB) leukemia): > 100 µM
- GI50 (PC-3 prostate): 3.31 µM
- TGI (PC-3 prostate): > 100 µM
- GI50 (MDA-MB-231 breast): 2.96 µM
- TGI (MDA-MB-231 breast): 20.4 µM
- GI50 (BT-549 breast): 5.63 µM
- TGI (BT-549 breast): > 100 µM
- GI50 (786-0 renal): 4.05 µM
- TGI (786-0 renal): 51 µM
- GI50 (SNB-75 CNS): 2.8 µM
- TGI (SNB-75 CNS): 24.6 µM
- GI50 (SK-OV-3 ovarian): 8.46 µM
- TGI (SK-OV-3 ovarian): > 100 µM
- GI50 (SR leukemia): 2.7 µM
- TGI (SR leukemia): > 100 µM
- GI50 (HOP-92 NSCLC): 2.84 µM
- TGI (HOP-92 NSCLC): > 100 µM
- GI50 (NCI-H522 lung): 2.92 µM
- TGI (NCI-H522 lung): 9.66 µM
- GI50 (MCF7 breast): 3.57 µM
- TGI (MCF7 breast): > 100 µM
- GI50 (SK-MEL-2 melanoma): 5.35 µM
- TGI (SK-MEL-2 melanoma): 74.8 µM
- GI50 (M14 melanoma): 3.81 µM
- TGI (M14 melanoma): > 100 µM
- GI50 (OVCAR-8 ovarian): 6.33 µM
- TGI (OVCAR-8 ovarian): > 100 µM
- GI50 (NCI/ADR-RES ovarian): 3.64 µM
- TGI (NCI/ADR-RES ovarian): > 100 µM
- GI50 (T-47D breast): 8.21 µM
- TGI (T-47D breast): > 100 µM
- GI50 (ACHN renal): 4.98 µM
- TGI (ACHN renal): > 100 µM
- GI50 (MOLT-4 leukemia): 5.86 µM
- TGI (MOLT-4 leukemia): > 100 µM
- GI50 (HCC-2998 colon): 3.84 µM
- TGI (HCC-2998 colon): 18.5 µM
- GI50 (A498 renal): 2.32 µM
- TGI (A498 renal): 9.19 µM
- GI50 (HOP-62 NSCLC): 59.4 µM
- TGI (HOP-62 NSCLC): > 100 µM
- GI50 (CCRF-CEM leukemia): 3.7 µM
- TGI (CCRF-CEM leukemia): > 100 µM
- GI50 (SF-539 CNS): 2.49 µM
- TGI (SF-539 CNS): 7.22 µM
- GI50 (OVCAR-5 ovarian): 10.3 µM
- TGI (OVCAR-5 ovarian): > 100 µM
- GI50 (K-562 leukemia): 2.63 µM
- TGI (K-562 leukemia): > 100 µM
- GI50 (OVCAR-4 ovarian): 6.83 µM
- TGI (OVCAR-4 ovarian): > 100 µM
- GI50 (RPMI-8226 leukemia): 4.42 µM
- TGI (RPMI-8226 leukemia): > 100 µM
- GI50 (HCT-116 colon): 4.86 µM
- TGI (HCT-116 colon): > 100 µM
- GI50 (HS 578T breast): 3.84 µM
- TGI (HS 578T breast): 86.8 µM
- GI50 (HT29 colon): 3.78 µM
- TGI (HT29 colon): > 100 µM
- GI50 (CAKI-1 renal): 3.47 µM
- TGI (CAKI-1 renal): > 100 µM
